# From patent US11384073B2, “Maleate salt of benzothiophene compound, crystalline form thereof, and use thereof” (SHANGHAI INSTITUTE OF MATERIA MEDICA, CHINESE ACADEMY OF …, priority 2018, dated 2022)
# Where two headings read alike, the source gives them in different places.
# How the values were obtained:
# [1] = Comparison of hygroscopicity; assay type: physicochemical; settings: relative humidity 92.5%, 96 hours; for Moisture gain: room temperature
# Protocol: The basic compound of compound Z (Example 1) and the different salts of compound Z (Examples 2, 4-6, 9) were studied for their hygroscopicity. A certain amount of the test sample was placed in a precisely weighed glass weighing bottle with a stopper, and weighed accurately. The weighing bottle was openly placed in a desiccator (a saturated potassium nitrate solution was placed in the lower part, with a relative humidity of 92.5%), and kept at room temperature for 96 hours, and then the weighing bottle was covered with the stopper and weighed accurately. The moisture gain was calculated.
# [2] = Comparison of appearance and compositions of the compounds; assay type: physicochemical
# Excerpt: The basic compound of compound Z (Example 1) was compared with the different salts of compound Z (Examples 2, 6-12) for their appearance, compositions, crystalline forms, etc., and the results are shown in the following table: […]
# [3] = Comparison of stability (Factors influencing test)
# Wistar rats = experiment: Acute toxicity experiments in rats; assay type: in vivo
# Protocol: Wistar rats were randomly divided into 3 groups with 10 rats in each group. The animals were fasted for 12 hours before the administration, and the muscle relaxation state of the animals was observed 1 hour after the administration. The animal's two forepaws were gripped on a 40 cm-high hemp rope for testing for three times. The case in which the animal could put the hind paws on the rope within 15 s for two or more times was regarded as no muscle relaxation. Otherwise, it was regarded as muscle relaxation. After each animal's muscle relaxation test, a catalepsy experiment was performed, and the “grip rod” experiment method was used to determine the rat's rigidity duration. The rat's two forepaws were gently put on a small rod to test the duration time that the rats maintained their two forepaws on the rod in a 45-degree posture. […] If the rat's forepaw had not been put down, the observation was terminated at 180 s.
# [4] = Comparison of solubility of the compounds; assay type: physicochemical
# Protocol: An appropriate amount of a sample was weighted in a glass tube, the selected solvent was added thereto in a gradient and the resultant was observed until it became clear.
# [5] = High temperature (60° C.), Day 2
# [6] = Illumination (4500 lx ± 500 lx), Day 2
Molecule,Hygroscopicity (in words) [1],Moisture gain [1],Composition [2],Crystal water [2],Static electricity [2],Purity ([3]; Day 0),"Purity [3, 5]","Purity [3, 6]",also measured
Citrate of 7-(2-(4-(benzo[b]thiophen-4-yl)piperazin-1-yl)ethyl)quinoline-2(1H)-one [Citrate of compound Z],lower hygroscopicity,0.53%,constant,No,No,,,,
"O=c1ccc2ccc(CCN3CCN(c4cccc5sccc45)CC3)cc2[nH]1 [Compound Z, 7-(2-(4-(benzo[b]thiophen-4-yl)piperazin-1-yl)ethyl)quinoline-2(1H)-one]",,−0.16%,constant,No,No,98.07%,98.03%,98.01%,"Stability (in words) ([3]; under high temperature and illumination conditions): high stability; Acute toxicity, recovery and animal deaths (comparison in words) (Wistar rats; dose of 200 mg/kg): the highest toxicity, the slowest recovery, and the most animal deaths; Solubility in deionized water (comparison in words) ([4]; Deionized water): significantly lower than those of the salts of compound Z; Solubility ([4]; buffer pH 2, aqueous buffer, thermodynamic from solid, buffer with pH = 2, read-out: Solubility): 6.8 µg/mL; Solubility ([4]; buffer pH 4.5, aqueous buffer, thermodynamic from solid, buffer with pH = 4.5, read-out: Solubility): 0.7 µg/mL"
"O=C(O)CCC(=O)O.O=c1ccc2ccc(CCN3CCN(c4cccc5sccc45)CC3)cc2[nH]1 [Succinate of compound Z, Succinate of 7-(2-(4-(benzo[b]thiophen-4-yl)piperazin-1-yl)ethyl)quinoline-2(1H)-one]",,2.02%,,,,98.95%,99.93%,99.92%,
"CS(=O)(=O)O.O=c1ccc2ccc(CCN3CCN(c4cccc5sccc45)CC3)cc2[nH]1 [Methanesulfonate of compound Z, Methanesulfonate of 7-(2-(4-(benzo[b]thiophen-4-yl)piperazin-1-yl)ethyl)quinoline-2(1H)-one]",relatively high hygroscopicity,1.74%,,,,98.60%,98.47%,98.54%,"Animal status after single administration (rigidity/muscle relaxation) (Wistar rats; gavage 200 mg/kg, 10 per group, Day 7): 5 normal"
"O=P(O)(O)O.O=c1ccc2ccc(CCN3CCN(c4cccc5sccc45)CC3)cc2[nH]1 [Phosphate of compound Z, Phosphate of 7-(2-(4-(benzo[b]thiophen-4-yl)piperazin-1-yl)ethyl)quinoline-2(1H)-one]",,,constant,No,No,,,,Solubility ([4]; Deionized water): 181.2 µg/mL; Solubility ([4]; buffer with pH = 2): 2.8 µg/mL; Solubility ([4]; buffer with pH = 4.5): 0.1 µg/mL
"Cl.O.O=c1ccc2ccc(CCN3CCN(c4cccc5sccc45)CC3)cc2[nH]1 [Monohydrochloride of compound Z, Monohydrochloride Monohydrate of 7-(2-(4-(benzo[b]thiophen-4-yl)piperazin-1-yl)ethyl)quinoline-2(1H)-one]",relatively high hygroscopicity,7.01%,,,,,,,
"O=C(O)/C=C/C(=O)O.O=c1ccc2ccc(CCN3CCN(c4cccc5sccc45)CC3)cc2[nH]1 [Fumarate of compound Z, Fumarate of 7-(2-(4-(benzo[b]thiophen-4-yl)piperazin-1-yl)ethyl)quinoline-2(1H)-one]",,,constant,No,No,,,,Solubility ([4]; Deionized water): 117.6 µg/mL; Solubility ([4]; buffer with pH = 2): 2.0 µg/mL; Solubility ([4]; buffer with pH = 4.5): 1.8 µg/mL
